Reference: patent publication US20150148311A1, “NON-SYSTEMIC TGR5 AGONISTS” (Ardelyx, Inc., priority 2011, published 2015)

These molecules were tested against T1, human TGR5 (Homo sapiens, UniProt Q8TDU6) (assay: Cell-based TGR5 assay, HEK293 cells stably expressing human TGR5, cAMP by HTRF). Conditions: HEK293 cells stably expressing human TGR5, 30 min at 37 C, 0.05 nM to 10 μM, read-out: pEC50 Human TGR5 (converted).
T1 construct: expressed in transfected cells
T1 sequence (Q8TDU6 1-330): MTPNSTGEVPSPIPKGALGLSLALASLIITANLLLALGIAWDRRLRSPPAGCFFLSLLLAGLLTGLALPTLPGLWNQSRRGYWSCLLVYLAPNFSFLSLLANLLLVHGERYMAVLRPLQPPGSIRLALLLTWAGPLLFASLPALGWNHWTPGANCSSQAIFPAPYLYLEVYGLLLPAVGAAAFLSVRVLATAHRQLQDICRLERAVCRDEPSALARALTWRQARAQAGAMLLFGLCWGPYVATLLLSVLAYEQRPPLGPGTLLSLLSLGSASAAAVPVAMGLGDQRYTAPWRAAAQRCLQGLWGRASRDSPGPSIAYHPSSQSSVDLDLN
Experimental: Two primary cell based screens were performed. The first utilized HEK293 cells stably transfected to heterologously express human TGR5. The second screen used the human caecum carcinoma cell line NCI-H716 which endogenously expresses human TGR5. In both assays, cells are treated with candidate TGR5 activators and assessed for the increased intercellular levels of cAMP.
HEK293 cells were transfected with a vector that expresses a gene encoding human TGR5, and a stable cell line was isolated using drug selection following standard techniques. Cells were grown overnight at 37° C./5% CO2 prior to assay.
TGR5-mediated cAMP generation was measured using a homogeneous time resolved fluorescence (HTRF) detection method (Cisbio). Test compounds were dissolved in DMSO to a final concentration of 10 mM. Serial 3-fold dilutions of the stock solution were made in DMSO, and these solutions were diluted 100-fold into Hanks Balanced Salt Solution supplemented with 10 mM HEPES pH 7.4 and 0.5 mM isobutyl methylxanthine (IBMX). Prior to assay, culture medium was replaced with fresh medium, and test compounds diluted in HBSS/HEPES/IBMX were added to the cells and incubated at 37° C. for 30 minutes.
Following incubation with test compounds, cAMP was detected through the successive addition of cAMP labeled with the modified allophyocyanin dye d2 (cAMP-d2) and cryptate-labeled anti-cAMP in lysis buffer, and reading HTRF per the manufacturer's instructions. A standard curve was used to convert the raw HTRF data into [cAMP].

SMILES	EC50 [nM]
O=C([C@@H]1CSCN1Cc1cc(I)ccc1C(F)(F)F)N1CCN(C2CC2)c2ccccc21 [Example 270]	126 to 1000
CN(C[C@H](O)[C@@H](O)[C@H](O)[C@H](O)CO)C(=O)CCCCc1ccc(C(F)(F)F)c(CNC2(C(=O)N3CCN(C4CC4)c4ccccc43)CC2)c1 [Example 172, 5-(3-((1-(4-cyclopropyl-1,2,3,4-tetrahydroquinoxaline-1-carbonyl)cyclopropylamino)methyl)-4-(trifluoromethyl)phenyl)-N-methyl-N-((2S,3R,4R,5R)-2,3,4,5,6-pentahydroxyhexyl)pentanamide]	1260 to 50100
COC(=O)[C@H](CCCCN)NC(=O)NCCCCCc1cc(Cl)c(CN2CSC[C@H]2C(=O)N2CCN(C3CC3)c3ccccc32)cc1Cl [Example 274]	126 to 1000
O=C(N1CCN(C2CC2)c2ccccc21)C1(NCc2cc(C3CC3)ccc2Cl)CC1 [Example 183, (1-(2-chloro-5-cyclopropylbenzylamino)cyclopropyl)(4-cyclopropyl-3,4-dihydroquinoxalin-1(2H)-yl)methanone]	< 100
O=C([C@@H]1CSCN1Cc1cc(Cl)c(CCCCCNc2nc(N(CCO)CCO)nc(N(CCO)CCO)n2)cc1Cl)N1CCN(C2CC2)c2ccccc21 [Example 173, 2-({4-[bis(2-hydroxyethyl)amino]-6-{[5-(2,5-dichloro-4-{[(4R)-4-[(4-cyclopropyl-1,2,3,4-tetrahydroquinoxalin-1-yl)carbonyl]-1,3-thiazolidin-3-yl]methyl}phenyl)pentyl]amino}-1,3,5-triazin-2-yl}(2-hydroxyethyl)amino)ethan-1-ol]	126 to 1000
COC(=O)[C@@H](CCCCN)NC(=O)NCCCCCc1cc(Cl)c(CN2CSC[C@H]2C(=O)N2CCN(C3CC3)c3ccccc32)cc1Cl [Example 275]	126 to 1000
NCCCC[C@@H]1NC(=O)N(CCCCCc2cc(Cl)c(CN3CSC[C@H]3C(=O)N3CCN(C4CC4)c4ccccc43)cc2Cl)C1=O [Example 273]	126 to 1000
O=C(O)CNC(=O)[C@H](CS)NC(=O)CC[C@H](NC(=O)CCCCc1cc(Cl)c(CN2CSC[C@H]2C(=O)N2CCN(C3CC3)c3ccccc32)cc1Cl)C(=O)O [Example 222]	< 100
CN(C[C@H](O)[C@@H](O)[C@H](O)[C@H](O)CO)C(=O)CCCCc1ccc(Cl)c(CNC2(C(=O)N3CCN(C4CC4)c4ccccc43)CC2)c1 [Example 262]	1260 to 50100
CN(C[C@H](O)[C@@H](O)[C@H](O)[C@H](O)CO)C(=O)NCCCc1cc(Cl)c(OCC2(C(=O)N3CCN(C4CC4)c4ccccc43)CC2)cc1Cl [Example 253]	126 to 1000
O=C([C@@H]1CSCN1Cc1c(Cl)ccc(Cl)c1O)N1CCN(C2CC2)c2ccccc21 [Example 170, (R)-(4-cyclopropyl-3,4-dihydroquinoxalin-1(2H)-yl)(3-(3,6-dichloro-2-hydroxybenzyl)thiazolidin-4-yl)methanone]	126 to 1000
O=C(NCCCN(CCCNC(=O)[C@H](O)[C@@H](O)[C@H](O)[C@H](O)CO)C(=O)c1ccc(COc2cc(Cl)c(CN3CSC[C@H]3C(=O)N3CCN(C4CC4)c4ccccc43)cc2Cl)cc1)[C@H](O)[C@@H](O)[C@H](O)[C@H](O)CO [Example 197]	1260 to 50100
CN(C(=O)[C@@H]1CSCN1Cc1cc(Cl)ccc1Cl)c1ccccc1OC1CC1 [Example 289]	126 to 1000
O=C(CCCCc1ccc(C(F)(F)F)c(CNC2(C(=O)N3CCN(C4CC4)c4ccccc43)CC2)c1)NC[C@H](O)[C@@H](O)[C@H](O)[C@H](O)CO [Example 272]	1260 to 50100
O=C(CCCCc1ccc(Cl)c(CNC2(C(=O)N3CCN(C4CC4)c4ccccc43)CC2)c1)NC[C@H](O)[C@@H](O)[C@H](O)[C@H](O)CO [Example 261]	126 to 1000
O=C([C@@H]1CSCN1Cc1cc(Cl)c(CN2CSC[C@H]2C(=O)N2CCN(C3CC3)c3ccccc32)cc1Cl)N1CCN(C2CC2)c2ccccc21 [Example 284]	1260 to 50100
CN(C[C@H](O)C(O)[C@H](O)[C@H](O)CO)C(=O)CC[C@H](NC(=O)CCCCc1cc(Cl)c(CN2CSC[C@H]2C(=O)N2CCN(C3CC3)c3ccccc32)cc1Cl)C(=O)N(C)C[C@H](O)[C@@H](O)[C@H](O)[C@H](O)CO (stereo partly shown) [Example 280]	126 to 1000
CN(C[C@H](O)[C@@H](O)[C@H](O)[C@H](O)CO)C(=O)CCCCc1cc(Cl)c(COC2(C(=O)N3CCN(C4CC4)c4ccccc43)CC2)cc1Cl [Example 192]	< 100
CN(CCCCc1cc(Cl)c(OCC2(C(=O)N3CCN(C4CC4)c4ccccc43)CC2)cc1Cl)C[C@H](O)[C@@H](O)[C@H](O)[C@H](O)CO [Example 171, (4-cyclopropyl-3,4-dihydroquinoxalin-1(2H)-yl)(1-((2,5-dichloro-4-(4-(methyl((2S,3R,4R,5R)-2,3,4,5,6-pentahydroxyhexyl)amino)butyl)phenoxy)methyl)-cyclopropyl)methanone]	126 to 1000
O=C([C@H]1C[C@H](F)CN1Cc1cc(Cl)ccc1C(F)(F)F)N1CCN(C2CC2)c2ccccc21 [Example 264]	126 to 1000

More lines, now with the values ahead:

EC50 [nM]	SMILES
1260 to 50100	O=C(O)c1cnn(Cc2cc(Cl)c(CN3CSC[C@H]3C(=O)N3CCN(C4CC4)c4ccccc43)cc2Cl)c1 [Example 232]
126 to 1000	CN(C[C@H](O)[C@@H](O)[C@H](O)[C@H](O)CO)C(=O)c1ccc(COc2cc(Cl)c(CN3CSC[C@H]3C(=O)N3CCN(C4CC4)c4ccccc43)cc2Cl)cc1 [Example 196]
1260 to 50100	CN(C[C@H](O)[C@@H](O)[C@@H](O)[C@H](O)CO)C(=O)CCc1cc(Cl)c(CN2C[C@@H](F)C[C@H]2C(=O)N2CCN(C3CC3)c3ccccc32)cc1Cl [Example 267]
< 100	O=C(NC[C@H](O)[C@@H](O)[C@H](O)[C@H](O)CO)c1cnn(Cc2cc(Cl)c(CN3CSC[C@H]3C(=O)N3CCN(C4CC4)c4ccccc43)cc2Cl)c1 [Example 234]
126 to 1000	Cn1nc(C(=O)O)cc1OCc1cc(Cl)c(CN2CSC[C@H]2C(=O)N2CCN(C3CC3)c3ccccc32)cc1Cl [Example 233]
1260 to 50100	CN(C[C@H](O)[C@@H](O)[C@H](O)[C@H](O)CO)C(=O)CCCCc1ccc(C(F)(F)F)c(CN2CSC[C@H]2C(=O)N2CCN(C3CC3)c3ccccc32)c1 [Example 269]
< 100	CN(CCO)c1nc(NCCCCCc2cc(Cl)c(CN3CSC[C@H]3C(=O)N3CCN(C4CC4)c4ccccc43)cc2Cl)cc(C(=O)NC[C@H](O)[C@@H](O)[C@H](O)[C@H](O)CO)n1 [Example 225]
126 to 1000	O=C(NC[C@H](O)[C@@H](O)[C@H](O)[C@H](O)CO)c1ccc(OCCCc2cc(Cl)c(CN3CSC[C@H]3C(=O)N3CCN(C4CC4)c4ccccc43)cc2Cl)cc1 [Example 286]
126 to 1000	CN(C[C@H](O)[C@@H](O)[C@H](O)[C@H](O)CO)C(=O)CN(CCCCCc1cc(Cl)c(CN2CSC[C@H]2C(=O)N2CCN(C3CC3)c3ccccc32)cc1Cl)CC(=O)O [Example 277]
1260 to 50100	O=C(NCCCN(CCCNC(=O)[C@H](O)[C@@H](O)[C@H](O)[C@H](O)CO)C(=O)CCc1cc(Cl)c(CN2CSC[C@H]2C(=O)N2CCN(C3CC3)c3ccccc32)cc1Cl)[C@H](O)[C@@H](O)[C@H](O)[C@H](O)CO [Example 209]
126 to 1000	CN(C[C@H](O)[C@@H](O)[C@H](O)[C@H](O)CO)C(=O)c1ccc(COc2cc(Cl)c(CN3CSC[C@H]3C(=O)N3CCN(C4CC4)c4ccccc43)cc2Cl)nc1 [Example 205]
126 to 1000	CN(C[C@H](O)[C@H](O)[C@@H](O)[C@H](O)CO)C(=O)c1ccc(CCc2cc(Cl)c(CN3CSC[C@H]3C(=O)N3CCN(C4CC4)c4ccccc43)cc2Cl)cn1 [Example 201]
126 to 1000	CN(C[C@H](O)[C@@H](O)[C@H](O)[C@H](O)CO)C(=O)c1cnn(Cc2cc(Cl)c(CN3CSC[C@H]3C(=O)N3CCN(C4CC4)c4ccccc43)cc2Cl)c1 [Example 235]
126 to 1000	O=C(NCCCc1cc(Cl)c(OCC2(C(=O)N3CCN(C4CC4)c4ccccc43)CC2)cc1Cl)NC[C@H](O)[C@@H](O)[C@H](O)[C@H](O)CO [Example 250]
1260 to 50100	CN(C[C@H](O)[C@@H](O)[C@H](O)[C@H](O)CO)C(=O)CCc1cc(Cl)c(CN2C[C@@H](F)C[C@H]2C(=O)N2CCN(C3CC3)c3ccccc32)cc1Cl [Example 266]
126 to 1000	CN(C[C@H](O)[C@@H](O)[C@H](O)[C@H](O)CO)C(=O)c1cnc(SCc2cc(Cl)c(CN3CSC[C@H]3C(=O)N3CCN(C4CC4)c4ccccc43)cc2Cl)n1C [Example 231]

Same assay, conditions: pEC50 Human TGR5, HEK293 cells stably expressing human TGR5, 30 min at 37 C, 0.05 nM to 10 μM

EC50 [nM]	SMILES
126 to 1000	O=C(NCCCN(CCCNC(=O)[C@H](O)[C@@H](O)[C@H](O)[C@H](O)CO)C(=O)NCCCCOc1cc(Cl)c(CN2CSC[C@H]2C(=O)N2CCN(C3CC3)c3ccccc32)cc1Cl)[C@H](O)[C@@H](O)[C@H](O)[C@H](O)CO [Example 195]
